Measured values taken from PubChem BioAssay AID2060504 (Molecular Pharmacology Branch, DTP, NCI, 2025).

System: 636577-100-R-J1-PDC complex spheroid viability
Assay: Anticancer human tumor 636577-100-R-J1-PDC patient-derived endometrial adenocarcinoma cell line growth inhibition [GQUAD]
Conditions: for IC50: curve of first compound; for viability, T/C: stronger effect = lower value
In short: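 Viability of tumor cells grown as complex spheroids with endothelial and stromal cells, exposed to drug combinations. Top concentration at or near clinical Cmax (else 10 microM), diluted in half-log increments.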

[1] = second compound 0.0316 µM, first compound 0.0316 µM
[2] = second compound 0.0316 µM, first compound 0.1 µM
[3] = second compound 0.0316 µM, first compound 0.316 µM
[4] = second compound 0.0316 µM, first compound 1 µM
[5] = second compound 0.0316 µM, first compound 3.16 µM
[6] = second compound 0.0316 µM, first compound 10 µM
[7] = second compound 0.1 µM, first compound 0.0316 µM
[8] = second compound 0.1 µM, first compound 0.1 µM
[9] = second compound 0.1 µM, first compound 0.316 µM
[10] = second compound 0.1 µM, first compound 1 µM
[11] = second compound 0.1 µM, first compound 3.16 µM
[12] = second compound 0.1 µM, first compound 10 µM
[13] = second compound 0.316 µM, first compound 0.0316 µM
[14] = second compound 0.316 µM, first compound 0.1 µM
[15] = second compound 0.316 µM, first compound 0.316 µM
[16] = second compound 0.316 µM, first compound 1 µM
[17] = second compound 0.316 µM, first compound 3.16 µM
[18] = second compound 0.316 µM, first compound 10 µM
[19] = second compound 1 µM, first compound 0.0316 µM
[20] = second compound 1 µM, first compound 0.1 µM
[21] = second compound 1 µM, first compound 0.316 µM
[22] = second compound 1 µM, first compound 1 µM
[23] = second compound 1 µM, first compound 3.16 µM
[24] = second compound 1 µM, first compound 10 µM
[25] = second compound 3.16 µM, first compound 0.0316 µM
[26] = second compound 3.16 µM, first compound 0.1 µM
[27] = second compound 3.16 µM, first compound 0.316 µM
[28] = second compound 3.16 µM, first compound 1 µM
[29] = second compound 3.16 µM, first compound 3.16 µM
[30] = second compound 3.16 µM, first compound 10 µM
[31] = second compound 10 µM, first compound 0.0316 µM
[32] = second compound 10 µM, first compound 0.1 µM
[33] = second compound 10 µM, first compound 0.316 µM
[34] = second compound 10 µM, first compound 1 µM
[35] = second compound 10 µM, first compound 3.16 µM
[36] = second compound 10 µM, first compound 10 µM
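Note: viability read after seven days of drug exposure.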
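Throughout, for viability, T/C: luminescence signal used as a proxy for viable cells; 100% = DMSO vehicle control wells.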

In the case of `C#Cc1c(F)ccc2cc(O)cc(-c3ncc4c(N5CC6CCC(C5)N6)nc(OCC56CCCN5CC(F)C6)nc4c3F)c12` (stereo not drawn) + Cc1[nH]c2ccc(F)cc2c1-c1nc2c3cccnc3c3ncccc3c2[nH]1, the IC50 (second compound 0.0316 µM) is reported as 6.4 µM, the IC50 (second compound 0.1 µM) is reported as 4.77 µM and the IC50 (second compound 0.316 µM) is reported as 4.54 µM. The IC50 (second compound 1 µM) was 1.75 µM, the IC50 (second compound 3.16 µM) was under 0.0316 µM and the IC50 (second compound 10 µM) was under 0.0316 µM. The viability, T/C [1] was 88.5%, the viability, T/C [2] was 99.4% and the viability, T/C [3] was 87.9%. For the same compound, the viability, T/C [4] was 78.7%, the viability, T/C [5] was 66.7% and the viability, T/C [6] was 39.9%. It also gave a viability, T/C [7] of 108%, a viability, T/C [8] of 93.7% and a viability, T/C [9] of 80.7%. For the same compound, the viability, T/C [10] was 59.5%, the viability, T/C [11] was 59.8% and the viability, T/C [12] was 41.2%. The viability, T/C [13] was 74.3%, the viability, T/C [14] was 61% and the viability, T/C [15] was 72.8%. For the same compound, the viability, T/C [16] was 78.6%, the viability, T/C [17] was 56.1% and the viability, T/C [18] was 36.7%. It also gave a viability, T/C [19] of 53%, a viability, T/C [20] of 78.2% and a viability, T/C [21] of 80.5%. The viability, T/C [22] was 51.8%, the viability, T/C [23] was 44.2% and the viability, T/C [24] was 28.1%. The viability, T/C [25] was 24.1%, the viability, T/C [26] was 23.5% and the viability, T/C [27] was 23.5%. For the same compound, the viability, T/C [28] was 22.6%, the viability, T/C [29] was 19.3% and the viability, T/C [30] was 12.7%. For the same compound, the viability, T/C [31] was 31%, the viability, T/C [32] was 39.9% and the viability, T/C [33] was 38.8%. It also gave a viability, T/C [34] of 28.5%, a viability, T/C [35] of 24.9% and a viability, T/C [36] of 15.8%.

`CCCS(=O)(=O)Nc1ccc(F)c(C(=O)c2c[nH]c3ncc(-c4ccc(Cl)cc4)cc23)c1F` + Cc1[nH]c2ccc(F)cc2c1-c1nc2c3cccnc3c3ncccc3c2[nH]1 showed an IC50 (second compound 0.0316 µM) of over 10 µM, an IC50 (second compound 0.1 µM) of 5.37 µM and an IC50 (second compound 0.316 µM) of 7.08 µM. It also gave an IC50 (second compound 1 µM) of 7.15 µM, an IC50 (second compound 3.16 µM) of under 0.0316 µM and an IC50 (second compound 10 µM) of under 0.0316 µM. It also gave a viability, T/C [1] of 98.2%, a viability, T/C [2] of 87.4% and a viability, T/C [3] of 116%. For the same compound, the viability, T/C [4] was 56.9%, the viability, T/C [5] was 73.5% and the viability, T/C [6] was 43.6%. For the same compound, the viability, T/C [7] was 101%, the viability, T/C [8] was 69.4% and the viability, T/C [9] was 104%. It also gave a viability, T/C [10] of 58.7%, a viability, T/C [11] of 66.3% and a viability, T/C [12] of 37.3%. For the same compound, the viability, T/C [13] was 94.2%, the viability, T/C [14] was 79.6% and the viability, T/C [15] was 81.2%. For the same compound, the viability, T/C [16] was 89.6%, the viability, T/C [17] was 80.4% and the viability, T/C [18] was 36.7%. It also gave a viability, T/C [19] of 87.4%, a viability, T/C [20] of 83.1% and a viability, T/C [21] of 63.9%. For the same compound, the viability, T/C [22] was 82.9%, the viability, T/C [23] was 69.4% and the viability, T/C [24] was 41.6%. For the same compound, the viability, T/C [25] was 28%, the viability, T/C [26] was 25.4% and the viability, T/C [27] was 31.2%. For the same compound, the viability, T/C [28] was 32.5%, the viability, T/C [29] was 31.9% and the viability, T/C [30] was 20.4%. The viability, T/C [31] was 40.2%, the viability, T/C [32] was 49.2% and the viability, T/C [33] was 48.7%. It also gave a viability, T/C [34] of 45.1%, a viability, T/C [35] of 43.5% and a viability, T/C [36] of 28.3%.

Work on `COc1cc(C2c3cc4c(cc3C(OC3OC5COC(C)OC5C(O)C3O)C3COC(=O)C23)OCO4)cc(OC)c1O` (stereo not drawn) + Cc1[nH]c2ccc(F)cc2c1-c1nc2c3cccnc3c3ncccc3c2[nH]1 yielded an IC50 (second compound 0.0316 µM) of 0.0867 µM, an IC50 (second compound 0.1 µM) of 0.0688 µM and an IC50 (second compound 0.316 µM) of 0.0858 µM. For the same compound, the IC50 (second compound 1 µM) was 0.0588 µM, the IC50 (second compound 3.16 µM) was under 0.0316 µM and the IC50 (second compound 10 µM) was 0.0368 µM. For the same compound, the viability, T/C [1] was 80.6%, the viability, T/C [2] was 45.6% and the viability, T/C [3] was 24.1%. The viability, T/C [4] was 16.1%, the viability, T/C [5] was 16% and the viability, T/C [6] was 14%. For the same compound, the viability, T/C [7] was 68.4%, the viability, T/C [8] was 41.2% and the viability, T/C [9] was 23.4%. For the same compound, the viability, T/C [10] was 17.1%, the viability, T/C [11] was 17.5% and the viability, T/C [12] was 13.9%. For the same compound, the viability, T/C [13] was 71.5%, the viability, T/C [14] was 46.7% and the viability, T/C [15] was 21.1%. For the same compound, the viability, T/C [16] was 16.8%, the viability, T/C [17] was 16.8% and the viability, T/C [18] was 14.2%. For the same compound, the viability, T/C [19] was 65.3%, the viability, T/C [20] was 37.2% and the viability, T/C [21] was 21.4%. The viability, T/C [22] was 19.9%, the viability, T/C [23] was 18% and the viability, T/C [24] was 13.8%. The viability, T/C [25] was 30%, the viability, T/C [26] was 23.9% and the viability, T/C [27] was 21%. It also gave a viability, T/C [28] of 18.5%, a viability, T/C [29] of 17.8% and a viability, T/C [30] of 14.1%. For the same compound, the viability, T/C [31] was 52.5%, the viability, T/C [32] was 34.6% and the viability, T/C [33] was 21.9%. It also gave a viability, T/C [34] of 19.1%, a viability, T/C [35] of 18.3% and a viability, T/C [36] of 15.1%.

With `Cc1cccc(N(C)C(=O)C2C(O)CCN2c2nc(C)cc(C(F)(F)F)c2C#N)c1` (stereo not drawn) + Cc1[nH]c2ccc(F)cc2c1-c1nc2c3cccnc3c3ncccc3c2[nH]1 the IC50 (second compound 0.0316 µM) was 3.16 µM, the IC50 (second compound 0.1 µM) was over 10 µM and the IC50 (second compound 0.316 µM) was over 10 µM. For the same compound, the IC50 (second compound 1 µM) was over 10 µM, the IC50 (second compound 3.16 µM) was under 0.0316 µM and the IC50 (second compound 10 µM) was over 10 µM. The viability, T/C [1] was 89%, the viability, T/C [2] was 77.5% and the viability, T/C [3] was 89.5%. For the same compound, the viability, T/C [4] was 39.3%, the viability, T/C [5] was 61.9% and the viability, T/C [6] was 61%. For the same compound, the viability, T/C [7] was 76.3%, the viability, T/C [8] was 90.3% and the viability, T/C [9] was 81%. For the same compound, the viability, T/C [10] was 57.7%, the viability, T/C [11] was 79% and the viability, T/C [12] was 69.2%. For the same compound, the viability, T/C [13] was 71.4%, the viability, T/C [14] was 85.8% and the viability, T/C [15] was 97.8%. It also gave a viability, T/C [16] of 48.6%, a viability, T/C [17] of 77.5% and a viability, T/C [18] of 72.4%. For the same compound, the viability, T/C [19] was 62.8%, the viability, T/C [20] was 65.3% and the viability, T/C [21] was 72.4%. It also gave a viability, T/C [22] of 54.9%, a viability, T/C [23] of 49.9% and a viability, T/C [24] of 54.2%. It also gave a viability, T/C [25] of 37.2%, a viability, T/C [26] of 40.3% and a viability, T/C [27] of 54.2%. For the same compound, the viability, T/C [28] was 48.6%, the viability, T/C [29] was 39.1% and the viability, T/C [30] was 41.3%. The viability, T/C [31] was 65.1%, the viability, T/C [32] was 58.8% and the viability, T/C [33] was 80.8%. The viability, T/C [34] was 55.1%, the viability, T/C [35] was 81% and the viability, T/C [36] was 56.4%.
